Test results as given in patent publication US20250161477A1, “NOVEL METHODS OF THERAPY” (BIVICTRIX LIMITED, priority 2022, published 2025).

Columns and labels:
[1] = tested on: Human CD34+ progenitor cells; test: Colony forming unit assay: differentiation of healthy CD34+ progenitor cells to myeloid CD33+ cells
Procedure: Methocult was thawed at 4° C. overnight. Methocult was shaken and allowed to stand at room temperature until all the bubbles had dispersed and aliquoted into 3 mL aliquots. A 6-point dose titration was prepared for each antibody in PBS to achieve the following final concentrations: 10, 3, 1, 0.1, 0.01 and 0 nM. Enough of each dilution was prepared to test activity across duplicate wells. Each titration was pipetted into a 1.5 mL tube. CD34+ cells were thawed at 37° C. and suspended in 2% FBS IMDM. 300 μL of suspension containing 3000 CD34+ cells were pipetted into each 1.5 mL tube containing antibody titration and the solution gently was mixed by pipetting. […] The total volume of antibody dilution added to the cells was 30 μL in all conditions. The cell suspension/conjugate mix was pipetted into a 3 mL aliquot of Methocult, vortexed for 5 seconds and allowed to stand at room temperature until the bubbles had disappeared. Using an 18-gauge blunt needle and 6 mL syringe, 1 mL of cell/conjugate/Methocult mix was transferred to a well of a Smart dish and each condition was tested across duplicate wells. Each plate was rocked to ensure the Methocult covered the entire well surface evenly and then placed in a 37° C., 5% CO2 incubator. The colonies were counted on day 9 and day 14 and the data plotted in Excel.

human CD33 (human) = human CD33 (human) (UniProt P20138); test: cell-based or functional assay
human CD56 (human) = human CD56 (human) (UniProt P13591); test: cell-based or functional assay
Chain of human CD56 (human) (P13591 other isoform, or with tags, fused parts or gaps limits assumed): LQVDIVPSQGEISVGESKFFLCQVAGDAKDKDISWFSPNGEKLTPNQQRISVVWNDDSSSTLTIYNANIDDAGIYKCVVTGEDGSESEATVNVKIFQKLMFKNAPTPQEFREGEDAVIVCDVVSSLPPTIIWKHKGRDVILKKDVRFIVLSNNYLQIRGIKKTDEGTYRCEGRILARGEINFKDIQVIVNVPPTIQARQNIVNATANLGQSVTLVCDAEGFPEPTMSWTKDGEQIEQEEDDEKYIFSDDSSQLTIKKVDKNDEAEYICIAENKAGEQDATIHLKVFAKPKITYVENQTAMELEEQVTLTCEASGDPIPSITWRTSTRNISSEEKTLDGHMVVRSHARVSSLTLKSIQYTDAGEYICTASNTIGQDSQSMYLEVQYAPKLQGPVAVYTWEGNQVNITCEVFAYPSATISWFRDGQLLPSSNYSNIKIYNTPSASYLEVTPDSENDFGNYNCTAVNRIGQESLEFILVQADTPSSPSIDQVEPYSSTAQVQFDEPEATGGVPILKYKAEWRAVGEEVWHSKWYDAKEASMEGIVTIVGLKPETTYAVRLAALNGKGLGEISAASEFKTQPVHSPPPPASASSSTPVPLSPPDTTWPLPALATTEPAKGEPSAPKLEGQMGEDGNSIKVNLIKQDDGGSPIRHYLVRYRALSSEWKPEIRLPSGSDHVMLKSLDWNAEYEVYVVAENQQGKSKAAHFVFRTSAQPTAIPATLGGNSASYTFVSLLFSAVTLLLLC

Chain of human CD33 (human) (P20138 18-364 R69G limits assumed): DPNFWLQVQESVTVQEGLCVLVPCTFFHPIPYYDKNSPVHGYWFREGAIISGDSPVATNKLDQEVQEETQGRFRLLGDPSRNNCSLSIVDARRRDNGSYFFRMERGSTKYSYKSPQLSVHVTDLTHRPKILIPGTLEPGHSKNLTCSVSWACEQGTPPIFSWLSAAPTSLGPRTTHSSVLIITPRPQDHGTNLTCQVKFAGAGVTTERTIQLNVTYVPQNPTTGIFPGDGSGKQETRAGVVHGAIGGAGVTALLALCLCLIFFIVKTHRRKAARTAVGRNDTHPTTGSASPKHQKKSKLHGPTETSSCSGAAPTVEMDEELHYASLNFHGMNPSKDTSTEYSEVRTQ

Molecule: GEMTUZUMAB: Gemtuzumab (In House), CD33 monospecific antibody, unconjugated
- Av. % of Colonies Surviving at 10 nM vs Control ([1]; 9 days of incubation, Experiment 1): 102.33%
- Av. % of Colonies Surviving at 10 nM vs Control ([1]; 9 days of incubation, Experiment 2): 113.3%
- Av. % of Colonies Surviving at 10 nM vs Control ([1]; 14 days of incubation, Experiment 1): 100.5%
- Av. % of Colonies Surviving at 10 nM vs Control ([1]; 14 days of incubation, Experiment 2): 82.8%

B1: BVX04-a0094-AB4A-1 (CD33xCD56 Bi-Fab ADC) (bispecific antibody, not shown: large carriers)
heavy 1: EVQLVQSGAEVKKPGSSVKVSCKASGYTITDSNIHWVRQAPGQSLEWIGYIYPYNGGTDYNQKFKNRATLTVDNPTNTAYMELSSLRSEDTAFYYCVNGNPWLAYWGQGTLVTVSS
light 1: DIQLTQSPSTLSASVGDRVTIICRASESLDNYGIRFLTWFQQKPGKAPKLLMYAASNQGSGVPSRFSGSGSGTEFTLTISSLQPDDFATYYCQQTKEVPWSFGQGTKLEIK
heavy 2: EVQLVQSGAEVKKPGSSVKVSCKASGGTFTGYYMHWVRQAPGQGLEWMGWINPNSGGTNYAQKFQGRVTMTRDTSISTAYMELSRLRSDDTAVYYCARDLSSGYSGYFDYWGQGTLVTVSS
light 2: DVVMTQSPLSLPVTPGEPASISCRSSQSLLHSNGYNFLDWYLQKPGQSPQLLIYLGSNRASGVPDRFSGSGSGTDFTLKISRVEADDVGVYYCMQSLQTPWTFGHGTKVEIK
- Mean IC50, cell kill assay (WST-1, 96 h) on KASUMI-3 cells (CD33+/CD56+) (human CD33 (human)): 0.061 nM
- Mean IC50, cell kill assay (WST-1, 96 h) on SET-2 cells (CD33+/CD56-) (human CD33 (human)): > 30 nM
- Mean IC50, cell kill assay (WST-1, 96 h) on KASUMI-3 cells (CD33+/CD56+) (human CD56 (human)): 0.061 nM
- Mean IC50, cell kill assay (WST-1, 96 h) on KE-37 cells (CD33-/CD56+) (human CD56 (human)): > 30 nM
